Target: 15-PGDH (Homo sapiens (Human), UniProt P15428)
Assay: Assay for the activities of 15-PGDH inhibitors (formation of NADH at 340 nm)
Type: biochemical
Conditions: purified 15-PGDH enzyme, 21 μM PGE2, 0.25 mM NAD+, pH 7.5; concentration inhibiting 50% of 15-PGDH activity
Procedure: <1-1> Expression and Purification of 15-PGDH
A 15-PGDH cDNA plasmid containing BamHI and EcoRI sites of the pGES-2T expression vector was used to transform Escherichia coli BL-21 lysS in accordance with the ordinarily used in the art. The transformed cells were grown in 500 mL LB medium containing 50 μg/mL ampicillin at 37° C. while being stirred at 220 rpm until the OD600 reached 0.6. Isopropyl β-D-thiogalactoside (1 mM) was added and the cells were allowed to grow for 12 hours at 25° C. Then, the pellets were harvested by centrifugation at 4000×g for 30 minutes at 4° C. The cell pallets were resuspended in 20 mL cell lysis buffer (1×PBS buffer (pH 7.4) containing 1 mM EDTA and 0.1 mM DTT) and sonicated (14×10 s at 4° C.). The disrupted cells were centrifuged at 4000×g for 20 minutes at 4° C. The supernatant was loaded slowly on a glutathione-sepharose 4B column, which was equilibrated at 4° C. with a cell lysis buffer (1×PBS buffer (pH 7.4) containing 1 mM EDTA and 0.1 mM DTT). The column was washed with the lysis buffer until OD280 reached below 0.005. Then, 15-PGDH was eluted from the glutathione-sepharose 4B column at room temperature for 5 minutes by using the elution buffer (50 mM Tris-HCl (pH 8.0) containing 10 mM reduced glutathione, 1 mM EDTA and 0.1 mM DTT). The concentration and the purity of the purified enzyme were determined by SDS-PAGE.
<1-2> Assay for the Activities of 15-PGDH Inhibitors
The absorbance of the reaction mixture was recorded at 340 nm so that the activities of the derivatives according to the present invention as 15-PGDH inhibitors were determined from a standard curve prepared from the absorbance of various concentrations of NADH at 340 nm.

Sequence of 15-PGDH (P15428 whole entry): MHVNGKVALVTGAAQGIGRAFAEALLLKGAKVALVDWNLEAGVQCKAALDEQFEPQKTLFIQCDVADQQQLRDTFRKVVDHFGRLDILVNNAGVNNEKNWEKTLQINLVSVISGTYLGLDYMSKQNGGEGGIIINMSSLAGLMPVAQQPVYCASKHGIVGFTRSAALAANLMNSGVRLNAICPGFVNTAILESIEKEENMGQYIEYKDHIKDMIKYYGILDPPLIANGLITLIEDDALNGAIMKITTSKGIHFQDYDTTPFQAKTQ

Row | SMILES | IC50 [µM]
1 | O=C1NC(=O)/C(=C/c2ccc(OCCC3CCCCC3)cc2)S1 [Derivative 46, 5-(4-(2-cyclohexylethoxy)benzylidene)thiazolidine-2,4-dione] | 0.0509
2 | O=C1NC(=O)/C(=C/c2ccc(OCCC3CCCCC3)c([N+](=O)[O-])c2)S1 [Derivative 49, 5-(4-(2-cyclohexylethoxy)-3-nitrobenzylidene)thiazolidine-2,4-dione] | 0.0595
3 | O=C1NC(=O)/C(=C/c2ccc(OCCc3ccccc3)cc2)S1 [Derivative 55, 5-[4-(2-phenylethoxy)benzylidene]-1,3-thiazolidine-2,4-dione] | 0.117
4 | CCOc1cc(/C=C2\SC(=O)NC2=O)ccc1OCCC1CCCCC1 [Derivative 59, 5-(4-(2-cyclohexylethoxy)-3-ethoxybenzylidene)thiazolidine-2,4-dione] | 0.259
5 | O=C1NC(=O)/C(=C/c2ccc(OCC3COc4ccccc4O3)cc2)S1 (centres unmarked) [Derivative 62, 5-(4-((2,3-Dihydrobenzo[b][1,4]dioxin-2-yl)methoxy)benzylidene) thiazolidine-2,4-dione] | 0.172
6 | O=C1NC(=O)/C(=C/c2cccc(OCC3CCCCC3)c2Cl)S1 [Derivative 63, 5-(2-chloro-3-(cyclohexylmethoxy)benzylidene)thiazolidine-2,4-dione] | 0.0576
7 | CC1CCC(COc2ccc(/C=C3\SC(=O)NC3=O)cc2C(F)(F)F)CC1 (centres unmarked) [Derivative 65, 5-[4-((4-methylcyclohexyl)methoxy)-3-(trifluoromethyl)benzylidene]thiazolidine-2,4-dione] | 0.0314
8 | O=C1NC(=O)/C(=C/c2ccc(OCCCc3ccccc3)c(Cl)c2)S1 [Derivative 70, 5-(3-chloro-4-(3-phenylpropoxy)benzylidene)thiazolidine-2,4-dione] | 0.0381
9 | O=C1NC(=O)/C(=C/c2cccc(OCCCc3ccccc3)c2Cl)S1 [Derivative 75, 5-(2-chloro-3-(3-phenylpropoxy)benzylidene)thiazolidine-2,4-dione] | 0.0449
10 | O=C1NC(=O)/C(=C/c2cc(F)c(OCCC3CCCCC3)c(Cl)c2)S1 [Derivative 77, 5-(3-chloro-5-fluoro-4-(2-cyclohexylethoxy)benzylidene)thiazolidine-2,4-dione] | 0.177
11 | COc1cc(/C=C2\SC(=O)NC2=O)cc(Cl)c1OCCC1CCCCC1 [Derivative 78, 5-(3-chloro-4-(2-cyclohexylethoxy)-5-methoxybenzylidene) thiazolidine-2,4-dione] | 0.0506
12 | O=C1NC(=O)/C(=C/c2ccc([N+](=O)[O-])c(OCCC3CCCCC3)c2)S1 [Derivative 79, 5-(3-(2-cyclohexylethoxy)-4-nitrobenzylidene)thiazolidine-2,4-dione] | 2.82
13 | O=C1NC(=O)/C(=C/c2ccc(OCc3ccccc3)cc2Cl)S1 [Derivative 85, 5-(4-(benzyloxy)-2-chlorobenzylidene)thiazolidine-2,4-dione] | 0.487
14 | O=C1NC(=O)/C(=C/c2ccc(OCCCc3ccccc3)cc2Cl)S1 [Derivative 87, 5-(2-chloro-4-phenylpropoxybenzylidene)thiazolidine-2,4-dione] | 0.052
15 | CC1CCC(COc2cccc(/C=C3\SC(=O)NC3=O)c2Cl)CC1 (centres unmarked) [Derivative 91, 5-{2-chloro-3-[(4-methylcyclohexyl)methoxy]benzylidene}-1,3-thiazolidine-2,4-dione] | 0.135
16 | CC(C)OCCOc1ccc(/C=C2\SC(=O)NC2=O)cc1Cl [Derivative 94, 5-{3-chloro-4-[2-(propan-2-yloxy)ethoxy]benzylidene}-1,3-thiazolidine-2,4-dione] | 2.74
17 | O=C1NC(=O)/C(=C/c2ccc(OC3CCCCC3)cc2Cl)S1 [Derivative 95, 5-(2-chloro-4-(cyclohexyloxy)benzylidene)thiazolidine-2,4-dione] | 0.233
18 | O=C1NC(=O)/C(=C/c2ccc(OCC3CCCCC3)cc2Cl)S1 [Derivative 96, 5-(2-chloro-4-(3-cyclohexylmethoxy)benzylidene)thiazolidine-2,4-dione] | 2.45
19 | O=C1NC(=O)/C(=C/c2ccc(OCCCC3CCCCC3)cc2Cl)S1 [Derivative 97, 5-(2-chloro-4-(3-cyclohexylpropoxy)benzylidene)thiazolidine-2,4-dione] | 0.284
20 | O=C1NC(=O)/C(=C/c2cccc(OC3CCCCC3)c2Cl)S1 [Derivative 99, 5-(2-chloro-3-(cyclohexyloxy)benzylidene)thiazolidine-2,4-dione] | 0.212
21 | O=C1NC(=O)/C(=C/c2cccc(OCCCCC3CCCCC3)c2Cl)S1 [Derivative 100, 5-(2-chloro-3-(cyclohexylbutoxy)benzylidene)thiazolidine-2,4-dione] | 0.0945
22 | O=C1NC(=O)/C(=C/c2ccc(OCCc3cccs3)c(Cl)c2)S1 [Derivative 101, 5-(3-chloro-4-(2-(thiophen-2-yl)ethoxy)benzylidene)thiazolidine-2,4-dione] | 0.0841
23 | COc1cc(/C=C2\SC(=O)NC2=O)ccc1OCCc1cccs1 [Derivative 102, 5-(3-methoxy-4-(2-(thiophen-2-yl)ethoxy)benzylidene)thiazolidine-2,4-dione] | 0.682
24 | COc1ccc(/C=C2\SC(=O)NC2=O)cc1OCCc1cccs1 [Derivative 103, 5-(4-methoxy-3-(2-(thiophen-2-yl)ethoxy)benzylidene)thiazolidine-2,4-dione] | 1.67

Now from value to molecule:

Row | IC50 [µM] | SMILES
25 | 0.286 | Nc1cc(/C=C2\SC(=O)NC2=O)ccc1OCCC1CCCCC1 [Derivative 50, 5-(3-amino-4-(2-cyclohexylethoxy)benzylidene)thiazolidine-2,4-dione]
26 | 0.0498 | Cc1cc(/C=C2\SC(=O)NC2=O)ccc1OCC1CCCCC1 [Derivative 51, 5-(4-(2-cyclohexylmethoxy)-3-methylbenzylidene)thiazolidine-2,4-dione]
27 | > 20 | O=C1NC(=O)/C(=C/c2ccc(Oc3ccccc3)cc2)S1 [Derivative 54, 5-(4-phenoxybenzylidene)-1,3-thiazolidine-2,4-dione]
28 | 3.56 | COc1cc(OCCC2CCCCC2)ccc1/C=C1\SC(=O)NC1=O [Derivative 60, 5-(4-(2-cyclohexylethoxy)-2-methoxybenzylidene)thiazolidine-2,4-dione]
29 | 0.059 | O=C1NC(=O)/C(=C/c2cccc(OCCCC3CCCCC3)c2Cl)S1 [Derivative 64, 5-(2-chloro-3-(cyclohexylpropoxy)benzylidene)thiazolidine-2,4-dione]
30 | 0.0204 | COC(=O)C1CCC(COc2ccc(/C=C3\SC(=O)NC3=O)cc2)CC1 (centres unmarked) [Derivative 66, methyl-4-((4-((2,4-dioxothiazolidine-5-ylidene)methyl)phenoxy)methyl)cyclohexane carboxylate]
31 | 1.16 | COc1ccc(/C=C2\SC(=O)NC2=O)cc1OCCC1CCCCC1 [Derivative 67, 5-(3-(2-cyclohexylethoxy)-4-methoxybenzylidene)thiazolidine-2,4-dione]
32 | 0.0198 | O=C1NC(=O)/C(=C/c2ccc(OCCc3ccccc3)c(Cl)c2)S1 [Derivative 69, 5-(3-chloro-4-phenylethoxybenzylidene)thiazolidine-2,4-dione]
33 | 0.122 | O=C1NC(=O)/C(=C/c2cccc(OCCc3ccccc3)c2Cl)S1 [Derivative 73, 5-(2-chloro-3-phenylethoxybenzylidene)thiazolidine-2,4-dione]
34 | 0.814 | O=C1NC(=O)/C(=C/c2ccc(OCc3ccc(-c4ccccc4)cc3)cc2)S1 [Derivative 76, 5-(4-(biphenyl-4-ylmethoxy)benzylidene)thiazolidine-2,4-dione]
35 | 0.11 | COc1ccc(/C=C2\SC(=O)NC2=O)c(Cl)c1OCCC1CCCCC1 [Derivative 80, 5-(2-chloro-3-(2-cyclohexylethoxy)-4-methoxybenzylidene) thiazolidine-2,4-dione]
36 | 0.137 | O=C1NC(=O)/C(=C/c2ccc(OCCC3CCCCC3)cc2C(F)(F)F)S1 [Derivative 81, 5-(4-(2-cyclohexylethoxy)-2-(trifluoromethyl)benzylidene)thiazolidine-2,4-dione]
37 | 6.28 | O=C1NC(=O)/C(=C/c2cc(OCCC3CCCCC3)ccc2[N+](=O)[O-])S1 [Derivative 83, 5-(5-(2-cyclohexylethoxy)-2-nitrobenzylidene)thiazolidine-2,4-dione]
38 | 0.178 | O=C1NC(=O)/C(=C/c2ccc(OCCc3ccccc3)cc2Cl)S1 [Derivative 86, 5-(2-chloro-4-phenylethoxybenzylidene)thiazolidine-2,4-dione]
39 | 2.45 | O=C1NC(=O)/C(=C/c2ccc(OCCN3CCS(=O)(=O)CC3)c([N+](=O)[O-])c2)S1 [Derivative 90, 5-[3-nitro-4-(2-thiomorpholine1,1-Dioxideethoxy)benzylidene]-2,4-thiazolidinedione]
40 | 10.3 | O=C1NC(=O)/C(=C/c2cccc(OCCc3ccccn3)c2Cl)S1 [Derivative 93]
41 | 8.91 | O=C1NC(=O)/C(=C/c2ccc(OCCc3ccccn3)cc2Cl)S1 [Derivative 104]

Source: patent US8637558B2 (Industry-Academic Cooperation Foundation, Chosun University, priority 2008, dated 2014)
